Test results taken from ChEMBL document CHEMBL1221220, “Transport and signaling via the amino acid binding site of the yeast Gap1 amino acid transceptor” (Nat Chem Biol, 2009).
Blank lines part the entries; values can stand above or below the molecule they belong to. Activity calls are given as the source filed them. No cut-off for these calls is given here. Residues, ends and D or L forms follow the SMILES beside them.

Assays:
[1] = target: T1, General amino-acid permease GAP1 (Saccharomyces cerevisiae) (UniProt P19145); assay: Inhibition of nitrogen-starved wild type sigma1278b yeast Gap1 assessed as reduction of L-citrulline-mediated trehalose activation at 5 to 10 mM
T1 sequence (whole entry): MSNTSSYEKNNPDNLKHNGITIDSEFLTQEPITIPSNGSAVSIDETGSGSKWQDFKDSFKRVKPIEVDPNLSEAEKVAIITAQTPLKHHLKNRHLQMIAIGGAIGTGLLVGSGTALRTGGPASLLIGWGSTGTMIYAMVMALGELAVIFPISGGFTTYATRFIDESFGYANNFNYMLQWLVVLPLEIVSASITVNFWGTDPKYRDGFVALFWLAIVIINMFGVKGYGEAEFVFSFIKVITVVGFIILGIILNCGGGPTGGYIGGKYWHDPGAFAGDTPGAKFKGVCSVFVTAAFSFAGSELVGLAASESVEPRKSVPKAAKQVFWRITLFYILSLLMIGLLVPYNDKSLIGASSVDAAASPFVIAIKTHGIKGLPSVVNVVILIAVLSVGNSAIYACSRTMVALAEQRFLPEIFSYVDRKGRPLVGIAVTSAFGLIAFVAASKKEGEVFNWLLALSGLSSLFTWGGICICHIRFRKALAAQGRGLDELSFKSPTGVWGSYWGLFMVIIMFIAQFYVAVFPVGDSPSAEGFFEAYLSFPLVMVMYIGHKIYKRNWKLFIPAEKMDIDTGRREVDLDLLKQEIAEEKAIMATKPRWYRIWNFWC

[2] = target: T2, General amino-acid permease GAP1 (Saccharomyces cerevisiae, UniProt P19145); assay: Competitive inhibition of nitrogen-starved wild type sigma1278b yeast Gap1 by Lineweaver-Burke plot analysis
T2 sequence (P19145 whole entry): T1 sequence (whole entry)

[3] = target: T1, General amino-acid permease GAP1 (Saccharomyces cerevisiae); assay: Induction of nitrogen-starved wild type sigma1278b yeast Gap1-mediated amino acid uptake at 5 mM after 90 mins
[4] = target: T1, General amino-acid permease GAP1 (Saccharomyces cerevisiae); assay: Inhibition of L-Arg-L-Gly-L-Gly-induced nitrogen-starved wild type sigma1278b yeast Gap1
[5] = target: T1, General amino-acid permease GAP1 (Saccharomyces cerevisiae); assay: Noncompetitive inhibition of nitrogen-starved wild type sigma1278b yeast Gap1-mediated amino acid uptake at 5 mM after 60 secs relative to L-citrulline
[6] = target: T2, General amino-acid permease GAP1; assay: Noncompetitive inhibition of nitrogen-starved wild type sigma1278b Gap1-mediated amino acid transport by Lineweaver-Burke plot analysis
[7] = target: T1, General amino-acid permease GAP1 (Saccharomyces cerevisiae); assay: Induction of nitrogen-starved wild type sigma1278b yeast Gap1-mediated […] activation at 10 mM
[8] = target: T1, General amino-acid permease GAP1 (Saccharomyces cerevisiae); assay: Competitive inhibition of nitrogen-starved wild type sigma1278b yeast Gap1-mediated amino acid uptake at 5 mM after 60 secs relative to L-citrulline
[9] = target: T1, General amino-acid permease GAP1 (Saccharomyces cerevisiae); assay: Induction of nitrogen-starved wild type sigma1278b yeast Gap1-mediated […] activation at 5 mM
[10] = target: T1, General amino-acid permease GAP1 (Saccharomyces cerevisiae); assay: Induction of nitrogen-starved wild type sigma1278b yeast Gap1-mediated […] activation at 5 mM in presence of 10 mM MTSEA treated before compound addition
[11] = substrate: NC(=O)NCCC[C@H](N)C(=O)O; assay: Activity at nitrogen-starved wild type sigma1278b Gap1; details: Saccharomyces cerevisiae

Molecule: N[C@@H](CC(=O)N[C@@H](CCC(=O)O)c1ccccc1)C(=O)O
inhibition [1]: Active
Ki [2]: 0.105 mM
Activity [3]: inactive
inhibition [4]: inactive

Molecule: CC(C)C[C@H](N)C(=O)NCC(=O)O (H-Leu-Gly-OH)
inhibition [8]: > 30%
Ki [2]: 0.19 mM
Activity [9]: Active
Activity [3]: inactive
Activity [10]: inactive

B1: General amino-acid permease GAP1 (Saccharomyces cerevisiae), P19145 (protein)
chain: T1 sequence (whole entry)
Km [11]: 37 µM

The next lines start with the values.

inhibition [5]: > 30%
Ki [6]: 5 mM
Activity [7]: inactive
Molecule: CSCC[C@H](NC(=O)[C@@H](N)CC(C)C)C(N)=O (H-Leu-Met-NH2)

inhibition [5]: > 30%
Ki [6]: 12 mM
Activity [7]: Active
Molecule: N=C(N)NCCC[C@H](N)C(=O)N[C@@H](Cc1ccccc1)C(=O)N[C@@H](Cc1ccccc1)C(=O)O (H-Arg-Phe-Phe-OH)
